In US12077503B2, “Substituted cyclic amides and their use as herbicides” (FMC CORPORATION, priority 2015, dated 2024):

Assays:
Type in all cases: in vivo
[1] = test system: barnyardgrass (Echinochloa crus-galli); experiment: Test G Pre-Emergence Protocol; conditions: Echinochloa crus-galli, pre-emergence, 312 h, evaluated after 13 days; for pest or weed control at 15.625 g/ha: 15.625 g ai/ha; for pest or weed control at 15.625 g/ha / pest or weed control at 250 g/ha: read-out: Barnyardgrass damage rating (100=total damage to plant; 0=no damage to plant); for pest or weed control at 62.5 g/ha: 62.5 g ai/ha, 100=total damage to plant, 0=no damage to plant, read-out: Barnyardgrass damage rating; for pest or weed control at 250 g/ha: 250 g ai/ha
How it was run: (§1)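 Glasshouse pre-emergence test: soil-sown seeds, sprayed after 1 d at 15.625, 62.5 or 250 g/ha. Conditions 24/16° C day/night, 14 h light, 65% humidity, watering twice daily. Rating 13 d post-spray (100 = total damage).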

corn (Zea mays) [2] = experiment: Test G Pre-Emergence Protocol; conditions: Zea mays, pre-emergence, 312 h, evaluated after 13 days; for plant injury at 15.625 g/ha: 15.625 g ai/ha; for plant injury at 15.625 g/ha / plant injury at 250 g/ha: read-out: Corn damage rating (100=total damage to plant; 0=no damage to plant); for plant injury at 62.5 g/ha: 62.5 g ai/ha, 100=total damage to plant, 0=no damage to plant, read-out: Corn damage rating; for plant injury at 250 g/ha: 250 g ai/ha
How it was run: as §1

[3] = test system: giant foxtail (Setaria faberi); experiment: Test G Pre-Emergence Protocol; conditions: Setaria faberi, pre-emergence, 312 h, evaluated after 13 days; for pest or weed control at 15.625 g/ha: 15.625 g ai/ha; for pest or weed control at 15.625 g/ha / pest or weed control at 250 g/ha: read-out: Foxtail, Giant damage rating (100=total damage to plant; 0=no damage to plant); for pest or weed control at 62.5 g/ha: 62.5 g ai/ha, 100=total damage to plant, 0=no damage to plant, read-out: Foxtail, Giant damage rating; for pest or weed control at 250 g/ha: 250 g ai/ha
How it was run: as §1

[4] = test system: ivy-leaved morning glory (Ipomoea hederacea); experiment: Test G Pre-Emergence Protocol; conditions: Ipomoea, pre-emergence, 312 h, evaluated after 13 days; for pest or weed control at 15.625 g/ha: 15.625 g ai/ha; for pest or weed control at 15.625 g/ha / pest or weed control at 250 g/ha: read-out: Morningglory, Ivy-leaved damage rating (100=total damage to plant; 0=no damage to plant); for pest or weed control at 62.5 g/ha: 62.5 g ai/ha, 100=total damage to plant, 0=no damage to plant, read-out: Morningglory, Ivy-leaved damage rating; for pest or weed control at 250 g/ha: 250 g ai/ha
How it was run: as §1

[5] = test system: redroot pigweed (Amaranthus retroflexus); experiment: Test G Pre-Emergence Protocol; conditions: Amaranthus retroflexus, pre-emergence, 312 h, evaluated after 13 days; for pest or weed control at 15.625 g/ha: 15.625 g ai/ha; for pest or weed control at 15.625 g/ha / pest or weed control at 250 g/ha: read-out: Pigweed, Redroot damage rating (100=total damage to plant; 0=no damage to plant); for pest or weed control at 62.5 g/ha: 62.5 g ai/ha, 100=total damage to plant, 0=no damage to plant, read-out: Pigweed, Redroot damage rating; for pest or weed control at 250 g/ha: 250 g ai/ha
How it was run: as §1

[6] = test system: velvetleaf (Abutilon theophrasti); experiment: Test G Pre-Emergence Protocol; conditions: Abutilon theophrasti, pre-emergence, 312 h, evaluated after 13 days; for pest or weed control at 15.625 g/ha: 15.625 g ai/ha; for pest or weed control at 15.625 g/ha / pest or weed control at 250 g/ha: read-out: Velvetleaf damage rating (100=total damage to plant; 0=no damage to plant); for pest or weed control at 62.5 g/ha: 62.5 g ai/ha, 100=total damage to plant, 0=no damage to plant, read-out: Velvetleaf damage rating; for pest or weed control at 250 g/ha: 250 g ai/ha
How it was run: as §1

[7] = test system: barnyardgrass (Echinochloa crus-galli); experiment: Test G Post-Emergence Protocol; conditions: Echinochloa crus-galli, post-emergence, 312 h, read-out: Barnyardgrass damage rating; for pest or weed control at 15.625 g/ha: 15.625 g ai/ha, evaluated after 13 days (100=total damage to plant; 0=no damage to plant); for pest or weed control at 62.5 g/ha: 62.5 g ai/ha; for pest or weed control at 62.5 g/ha / pest or weed control at 250 g/ha: evaluated after 13 days, 100=total damage to plant, 0=no damage to plant; for pest or weed control at 250 g/ha: 250 g ai/ha
How it was run: (§2)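 A glasshouse post-emergence test: 8-day-old plants sprayed at 15.625, 62.5 or 250 g/ha, then grown at 24/16 °C day/night with 14 h light and 65% humidity. Damage rated 13 days later, 0–100.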

corn (Zea mays) [8] = experiment: Test G Post-Emergence Protocol; conditions: Zea mays, post-emergence, 312 h, read-out: Corn damage rating; for plant injury at 15.625 g/ha: 15.625 g ai/ha, evaluated after 13 days (100=total damage to plant; 0=no damage to plant); for plant injury at 62.5 g/ha: 62.5 g ai/ha; for plant injury at 62.5 g/ha / plant injury at 250 g/ha: evaluated after 13 days, 100=total damage to plant, 0=no damage to plant; for plant injury at 250 g/ha: 250 g ai/ha
How it was run: as §2

[9] = test system: giant foxtail (Setaria faberi); experiment: Test G Post-Emergence Protocol; conditions: Setaria faberi, post-emergence, 312 h, read-out: Foxtail, Giant damage rating; for pest or weed control at 15.625 g/ha: 15.625 g ai/ha, evaluated after 13 days (100=total damage to plant; 0=no damage to plant); for pest or weed control at 62.5 g/ha: 62.5 g ai/ha; for pest or weed control at 62.5 g/ha / pest or weed control at 250 g/ha: evaluated after 13 days, 100=total damage to plant, 0=no damage to plant; for pest or weed control at 250 g/ha: 250 g ai/ha
How it was run: as §2

[10] = test system: ivy-leaved morning glory (Ipomoea hederacea); experiment: Test G Post-Emergence Protocol; conditions: Ipomoea, post-emergence, 312 h, read-out: Morningglory, Ivy-leaved damage rating; for pest or weed control at 15.625 g/ha: 15.625 g ai/ha, evaluated after 13 days (100=total damage to plant; 0=no damage to plant); for pest or weed control at 62.5 g/ha: 62.5 g ai/ha; for pest or weed control at 62.5 g/ha / pest or weed control at 250 g/ha: evaluated after 13 days, 100=total damage to plant, 0=no damage to plant; for pest or weed control at 250 g/ha: 250 g ai/ha
How it was run: as §2

[11] = test system: redroot pigweed (Amaranthus retroflexus); experiment: Test G Post-Emergence Protocol; conditions: Amaranthus retroflexus, post-emergence, 312 h, read-out: Pigweed, Redroot damage rating; for pest or weed control at 15.625 g/ha: 15.625 g ai/ha, evaluated after 13 days (100=total damage to plant; 0=no damage to plant); for pest or weed control at 62.5 g/ha: 62.5 g ai/ha; for pest or weed control at 62.5 g/ha / pest or weed control at 250 g/ha: evaluated after 13 days, 100=total damage to plant, 0=no damage to plant; for pest or weed control at 250 g/ha: 250 g ai/ha
How it was run: as §2

[12] = test system: velvetleaf (Abutilon theophrasti); experiment: Test G Post-Emergence Protocol; conditions: Abutilon theophrasti, post-emergence, 312 h, read-out: Velvetleaf damage rating; for pest or weed control at 15.625 g/ha: 15.625 g ai/ha, evaluated after 13 days (100=total damage to plant; 0=no damage to plant); for pest or weed control at 62.5 g/ha: 62.5 g ai/ha; for pest or weed control at 62.5 g/ha / pest or weed control at 250 g/ha: evaluated after 13 days, 100=total damage to plant, 0=no damage to plant; for pest or weed control at 250 g/ha: 250 g ai/ha
How it was run: as §2

SMILES | pest or weed control at 15.625 g/ha [1] | pest or weed control at 62.5 g/ha [1] | pest or weed control at 250 g/ha [1] | plant injury at 15.625 g/ha (corn (Zea mays) [2]) | plant injury at 62.5 g/ha (corn (Zea mays) [2]) | plant injury at 250 g/ha (corn (Zea mays) [2]) | pest or weed control at 15.625 g/ha [3] | pest or weed control at 62.5 g/ha [3] | pest or weed control at 250 g/ha [3] | pest or weed control at 15.625 g/ha [4] | pest or weed control at 62.5 g/ha [4] | pest or weed control at 250 g/ha [4] | pest or weed control at 15.625 g/ha [5] | pest or weed control at 62.5 g/ha [5] | pest or weed control at 250 g/ha [5] | pest or weed control at 15.625 g/ha [6] | pest or weed control at 62.5 g/ha [6] | pest or weed control at 250 g/ha [6] | pest or weed control at 15.625 g/ha [7] | pest or weed control at 62.5 g/ha [7] | other results
Cc1cc(C2CN(C)C(=O)C2C(=O)Nc2cccc(F)c2F)cc(C)c1F (stereo not drawn) [Compound 1712] | 60% | 80% | 90% | 0% | 10% | 70% | 80% | 90% | 90% | 0% | 0% | 20% | 10% | 0% | 10% | 0% | 0% | 20% | 50% | 80% | pest or weed control at 250 g/ha [7]: 90%; plant injury at 15.625 g/ha (corn (Zea mays) [8]): 40%; plant injury at 62.5 g/ha (corn (Zea mays) [8]): 70%; plant injury at 250 g/ha (corn (Zea mays) [8]): 70%; pest or weed control at 15.625 g/ha [9]: 80%; pest or weed control at 62.5 g/ha [9]: 80%; pest or weed control at 250 g/ha [9]: 80%; pest or weed control at 15.625 g/ha [10]: 10%; pest or weed control at 62.5 g/ha [10]: 30%; pest or weed control at 250 g/ha [10]: 70%; pest or weed control at 15.625 g/ha [11]: 0%; pest or weed control at 62.5 g/ha [11]: 20%; pest or weed control at 250 g/ha [11]: 20%; pest or weed control at 15.625 g/ha [12]: 10%; pest or weed control at 62.5 g/ha [12]: 10%; pest or weed control at 250 g/ha [12]: 40%
COc1cc(C2CN(C)C(=O)C2C(=O)Nc2cccc(F)c2F)cc(C)c1C (stereo not drawn) [Compound 1713] | 30% | 70% | 90% | 10% | 20% | 90% | 50% | 70% | 90% | 0% | 0% | 0% | 0% | 0% | 0% | 0% | 0% | 0% | 10% | 80% | pest or weed control at 250 g/ha [7]: 80%; plant injury at 15.625 g/ha (corn (Zea mays) [8]): 0%; plant injury at 62.5 g/ha (corn (Zea mays) [8]): 50%; plant injury at 250 g/ha (corn (Zea mays) [8]): 80%; pest or weed control at 15.625 g/ha [9]: 60%; pest or weed control at 62.5 g/ha [9]: 80%; pest or weed control at 250 g/ha [9]: 80%; pest or weed control at 15.625 g/ha [10]: 20%; pest or weed control at 62.5 g/ha [10]: 60%; pest or weed control at 250 g/ha [10]: 70%; pest or weed control at 15.625 g/ha [11]: 0%; pest or weed control at 62.5 g/ha [11]: 0%; pest or weed control at 250 g/ha [11]: 0%; pest or weed control at 15.625 g/ha [12]: 0%; pest or weed control at 62.5 g/ha [12]: 0%; pest or weed control at 250 g/ha [12]: 20%
CCOc1ccc(C2CN(C)C(=O)C2C(=O)Nc2cccc(F)c2F)cc1F (stereo not drawn) [Compound 1717] | 0% | 40% | 90% | 0% | 0% | 0% | 60% | 90% | 90% | 0% | 0% | 0% | 0% | 10% | 20% | 0% | 10% | 0% | 0% | 60% | pest or weed control at 250 g/ha [7]: 70%; plant injury at 15.625 g/ha (corn (Zea mays) [8]): 0%; plant injury at 62.5 g/ha (corn (Zea mays) [8]): 0%; plant injury at 250 g/ha (corn (Zea mays) [8]): 10%; pest or weed control at 15.625 g/ha [9]: 30%; pest or weed control at 62.5 g/ha [9]: 70%; pest or weed control at 250 g/ha [9]: 80%; pest or weed control at 15.625 g/ha [10]: 0%; pest or weed control at 62.5 g/ha [10]: 0%; pest or weed control at 250 g/ha [10]: 0%; pest or weed control at 15.625 g/ha [11]: 0%; pest or weed control at 62.5 g/ha [11]: 0%; pest or weed control at 250 g/ha [11]: 0%; pest or weed control at 15.625 g/ha [12]: 0%; pest or weed control at 62.5 g/ha [12]: 0%; pest or weed control at 250 g/ha [12]: 0%
